The values that follow come from patent publication EP1240898A2, “Use of 2-deoxy ecdysterone for the preparation of a medicament for inducing labour or abortion” (Council of Scientific and Industrial Research, priority 2000, dated 2001).

The test system of data set [1] is guinea pig uterus. Description: Oxytocic activity on isolated guinea pig uterus (height of contraction compared with standard oxytocin or PGF2α). In kind it is cell-based. The settings on record: at the concentration of 200 µg/ml.
For data set [2] the following is noted: radiolabelled, injected into human volunteers, within 5 hours; cited from earlier work.

Molecules are shown by their SMILES.

Consider `CC(C)(O)CC[C@@H](O)[C@](C)(O)[C@H]1CC[C@@]2(O)C3=CC(=O)[C@@H]4C[C@@H](O)CC[C@]4(C)[C@H]3CC[C@]12C` [2-deoxy ecdysterone], for which the “potency compared with the standards (in words)” value in data set [1] was “more potent than the standard oxytocin and PGF2α”.

Regarding `CCCCC[C@H](O)/C=C/[C@H]1[C@H](O)CC(=O)[C@@H]1C/C=C\CCCC(=O)O` [PGE2], in data set [2], the “radioactivity excreted in the urine” value is “about 50%”.

`CCCCC[C@H](O)/C=C/[C@@H]1[C@@H](C/C=C\CCCC(=O)O)[C@@H](O)C[C@H]1O` [PGF2α]: the “radioactivity excreted in the urine” value in data set [2] is “around 90%”.
